Laboratory results published in ChEMBL document CHEMBL1129037 (J Med Chem, 1996).

Experiments:
[1] = target: Sodium-dependent dopamine transporter (Rattus norvegicus) (UniProt P23977)
Description: The compound Hill coefficient value determined for WIN-Binding

[2] = target: T1, Sodium-dependent dopamine transporter (Rattus norvegicus, UniProt P23977); test: Inhibitory activity against [3H]dopamine uptake in rat striatal tissue; assay type: functional, tissue-based, Striatum
[3] = target: T1, Sodium-dependent dopamine transporter; test: Inhibition of [3H]WIN-35428 binding to dopamine transporter using rat striatal tissue; assay type: tissue-based, Striatum

T1 sequence (P23977 whole entry): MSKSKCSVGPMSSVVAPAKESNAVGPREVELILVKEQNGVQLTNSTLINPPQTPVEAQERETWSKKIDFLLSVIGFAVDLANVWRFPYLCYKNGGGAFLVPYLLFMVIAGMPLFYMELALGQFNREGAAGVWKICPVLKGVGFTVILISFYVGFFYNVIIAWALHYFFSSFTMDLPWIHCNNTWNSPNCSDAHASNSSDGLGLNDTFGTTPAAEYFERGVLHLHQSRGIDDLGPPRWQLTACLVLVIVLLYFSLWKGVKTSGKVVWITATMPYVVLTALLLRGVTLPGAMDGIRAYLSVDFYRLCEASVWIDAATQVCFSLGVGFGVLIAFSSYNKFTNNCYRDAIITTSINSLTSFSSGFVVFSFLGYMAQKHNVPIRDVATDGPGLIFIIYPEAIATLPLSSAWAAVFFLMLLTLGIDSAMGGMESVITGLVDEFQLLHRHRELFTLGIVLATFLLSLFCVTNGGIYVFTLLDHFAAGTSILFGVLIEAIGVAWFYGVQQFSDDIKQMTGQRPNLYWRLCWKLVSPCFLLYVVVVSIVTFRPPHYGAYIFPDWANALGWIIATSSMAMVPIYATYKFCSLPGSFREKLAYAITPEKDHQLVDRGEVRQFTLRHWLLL
Sequence of Sodium-dependent dopamine transporter (Rattus norvegicus) (P23977 whole entry): as above

Row | Compound | Hill coefficient [1] | IC50 [2] [nM] | IC50 [3] [nM]
1 | COC(=O)[C@@H](c1ccc(Cl)c(Cl)c1)[C@@H]1CCCCN1 | 2.07 | 7 | 5.3
2 | COC(=O)[C@@H](c1ccc(I)cc1)[C@@H]1CCCCN1 | 1.1 | 64.5 | 14
3 | COC(=O)C(c1ccccc1Br)C1CCCCN1 (single isomer, unassigned) | 1.06 | 59000 | 38100
4 | COC(=O)C(c1cccc(Cl)c1)C1CCCCN1 (single isomer, unassigned) | 1.03 | 1540 | 378
5 | COC(=O)[C@@H](c1cccc(N)c1)[C@@H]1CCCCN1 | 1.06 | 578 | 265
6 | COC(=O)[C@@H](c1ccccc1OC)[C@@H]1CCCCN1 | 0.94 | 81000 | –
7 | COC(=O)[C@@H](c1ccccc1Br)[C@@H]1CCCCN1 | 0.93 | 3410 | 1870
8 | COC(=O)[C@@H](c1ccc(OC)c(OC)c1)[C@@H]1CCCCN1 | 1.12 | 1760 | 810
9 | COC(=O)[C@@H](c1cccc(Br)c1)[C@@H]1CCCCN1 | 1.14 | 12.8 | 4.2
10 | COC(=O)[C@@H](c1cccc(F)c1)[C@@H]1CCCCN1 | 0.85 | 160 | 40.5
11 | COC(=O)[C@@H](c1cccc(O)c1)[C@@H]1CCCCN1 | 1.09 | 790 | 321
12 | COC(=O)[C@@H](c1ccccc1F)[C@@H]1CCCCN1 | 0.9 | 2900 | 1420
13 | COC(=O)[C@@H](c1ccc(N)cc1)[C@@H]1CCCCN1 | 0.96 | 115 | 34.6
14 | COC(=O)C(c1ccccc1Cl)C1CCCCN1 (single isomer, unassigned) | 0.92 | 61000 | 52500
15 | COC(=O)[C@H]1[C@@H](OC(=O)c2ccccc2)C[C@@H]2CC[C@H]1N2C | 1.03 | – | –
16 | COC(=O)[C@@H](c1ccc(C)cc1)[C@@H]1CCCCN1 | 1.05 | 126 | 33
17 | COC(=O)[C@@H](c1ccc(Br)cc1)[C@@H]1CCCCN1 | 1.15 | 26.3 | 6.9
18 | COC(=O)C(c1ccc(C(C)(C)C)cc1)C1CCCCN1 (single isomer, unassigned) | 1.1 | – | –
19 | COC(=O)C(c1ccccc1OC)C1CCCCN1 (single isomer, unassigned) | 0.87 | 290000 | 139000
20 | COC(=O)[C@@H](c1ccccc1)[C@@H]1CCCCN1 | 0.9 | – | –
21 | COC(=O)[C@@H](c1cccc(Cl)c1)[C@@H]1CCCCN1 | 0.95 | 23 | 5.1
22 | COC(=O)[C@@H](c1cccc(C)c1)[C@@H]1CCCCN1 | 1.01 | 100 | 21.4
23 | COC(=O)[C@@H](c1ccc(O)cc1)[C@@H]1CCCCN1 | 1.07 | 340 | 98
24 | COC(=O)[C@@H](c1ccccc1O)[C@@H]1CCCCN1 | 1.04 | 35800 | –
25 | COC(=O)[C@@H](c1ccc(C(C)(C)C)cc1)[C@@H]1CCCCN1 | 1.12 | – | –
26 | COC(=O)[C@@H](c1ccccc1Cl)[C@@H]1CCCCN1 | 0.98 | 2660 | 1950
27 | COC(=O)[C@@H](c1ccc(Cl)cc1)[C@@H]1CCCCN1 | 1.17 | 73.8 | 20.6
28 | COC(=O)[C@@H](c1ccc(F)cc1)[C@@H]1CCCCN1 | 0.97 | 142 | 35
29 | COC(=O)[C@@H](c1ccc([N+](=O)[O-])cc1)[C@@H]1CCCCN1 | 1.17 | 1610 | 494
